Data published in US6465007B1, “Transgene expression in polarized cells” (Genzyme Corporation, priority 1998, dated 2002).

Key:
polarized NHBE cells [1] = test: Binding and internalization of cationic lipid:pDNA complexes (TOTO-1 label, trypan blue quenching); conditions: Table 1; grades Very Effective / Mildly Effective
Protocol: Cells were incubated with TOTO-1 or Rh-PE labeled complexes at 37° C. for the times noted in the figure legends. Following incubation, cells were washed 7 times with cold PBS and then fixed in 2% paraformadehyde for 20 min at 4° C. The membrane of the insert was removed and mounted using immuno-mount (Shandon, Pittsburgh, Pa.) containing 2 μg/ml DAPI (Molecular Probes). Bound and internalized complexes were observed under a fluorescence microscope (Olympus, AX-70). To observe only internalized complexes, cells were washed 2 times with cold PBS and then the fluorescence of surface bound complexes was quenched by a 10 min incubation with trypan blue (1 mg/ml; Diagnostic Systems, Inc., Gibbstown, N.J.) on ice. Cells were then washed an additional 5 times with cold PBS, fixed and mounted.
Polarized NHBE cells were cultured using a modified procedure based on the methods described by Yamaya et al., American Journal of Physiology, 265:L170-L177 (1993), Jiang et al., Science, 262:424-427 (1993) and Gray et al., American Journal of Respiratory Cell & Molecular Biology, 14:104-112 (1996). Briefly, first passage NHBE cells were plated at a density of 2.5×10^5 cells/cm^2 onto inserts (Millicell-PCF, 0.4 μm pore size, Millipore) coated with human placental collagen (Sigma). The culture medium was the same as that described above for growing NHBE cells as islands. Cultures were maintained under air-liquid interface conditions starting at day 3 following the initial seeding. Cells were considered ready for use when the trans-epithelial resistance was •1000 Ωcm^2.

CF patients = conditions: cited from earlier work
polarized NHBE cells [2] = test: In vitro transfection with GL-67:pCF1-SEAP, secreted alkaline phosphatase in apical supernatant; type: cell-based, human; conditions: 0.5 μg/ml, 18 h before and after transfection, with or without Ca2+-free medium; FIG. 2A
Protocol: Prior to transfection, polarized NHBE cells on inserts were incubated in either Opti-MEM, Opti-MEM containing 0.1% EGTA, or in Ca^2+-free media (Gibco) in both sides of the insert for 30 min at 37° C. The cells were then washed 3 times with Opti-MEM, and incubated with unlabeled GL-67:pCF1-SEAP (40:53 μM) for 4 h at 37° C., after which they were washed 3 times with Opti-MEM. One ml of culture medium then was added to the outside of the insert (basal side) and 100 μl added to the inside of the insert (apical side). The supernatant from the apical side was collected on day 2 after transfection, heated at 65° C. for 1 h to denature endogenous alkaline phosphatases (Berger et al., Gene, 1988), and assayed in triplicate for secreted alkaline phosphatase (SEAP) activity using an alkaline phosphatase reagent (Sigma) and human placental alkaline phosphatase (Calbiochem, La Jolla, Calif.) as a standard.
(§1) To inhibit NHBE cell proliferation, aphidicolin (0.5 μg/ml; Sigma) was added to culture medium on the basal side of the polarized NHBE cells for 18 h at 37° C. The cells were then transfected as described above except that the concentrations of cationic lipid and pDNA were 80 and 107 μM, respectively. After transfection, aphidicolin was present in the culture medium until the cells were harvested. […] Retinoic acid enhanced the inhibitory effect of aphidicolin on cell proliferation (Chou, R. H. et al., Cell & Tissue Kinetics, 18:387-97, 1985).

NHBE cells = test: Cell proliferation assay, [methyl-3H]-thymidine incorporation into DNA; type: cell-based, human
Protocol: The proliferation of NHBE cells was assessed by measuring the amount of [methyl-^3H] thymidine incorporation into DNA (Fasbender et al., Gene Therapy, 4:1173-1180, 1997). [Methyl-^3H] thymidine (5 μCi/ml; Amersham, Arlington Heights, Ill.) was added to culture medium on the basal side of polarized NHBE cells which had been pre-treated with either Opti-MEM or Ca^2+-free medium. After 4 h, both groups of cells were washed 3 times with PBS and then lysed in a buffer containing 0.2% SDS, 100 mM Tris (pH=7.0), 5 mM EDTA, 200 mM NaCl, and 0.5 mg/ml proteinase K. The lysate was incubated at 65° C. for 30 min, microcentrifuged for 5 min and the supernatant placed into a fresh tube. An equal volume of isopropanol was added to precipitate the DNA. The precipitated DNA pellet was washed twice with 70% ethanol, dried, and resuspended in a 10 mM Tris-HCl, 0.5 mM EDTA buffer, pH 8.0. The DNA concentration was determined using A260/280 measurements. Tritium counts were measured using a Beckman LS6500 scintillation counter.
as §1

mouse trachea = test: Intranasal instillation of Ad2βgal-4, X-gal staining of airways; type: in vivo
Protocol: Female BALB/c mice 9-12 weeks of age were purchased from Taconic (Germantown, N.Y.). In some groups, mice were instilled intranasally with 25 μl of a solution containing EGTA (pH 7.5), followed by 25 μl of 5% sucrose in PBS containing Adβgal-4 (2×10^8 IU). In other groups, mice were co-instilled with 25 μl of a solution prepared by mixing equal volumes of a 2× (4×10^8 IU/25 μl) Ad2βgal-4 solution in 10% sucrose with 2×EGTA prior to instillation.
Cytochemical localization of Ogal expression in the trachea was observed using 5-bromo-4-chloro-3-indolyl-β-D-galactopyranoside (X-gal; Sigma). In brief, cannulated mouse lungs were fixed for 10 min by infusion of a fixing solution (2% paraformaldehyde and 0.2% glutaraldehyde in PBS). The lungs were then rinsed twice with 50 mM glycine in PBS, filled with X-gal solution, and stained overnight. Staining was stopped by transfering the samples into the fixing solution.
Trachea with staining levels were defined on a scale of 0 to 3, 0 indicating no cells staining for βgal, and a value of 3 indicating a large number of cells positive for the transgene. To evaluate the effect of EGTA concentration on AdV-mediated gene transfer in the trachea, mice were pre-treated with various concentrations of EGTA 0.5 h before AdV instillation. In some animals, AdV and EGTA were co-instilled. To exclude the possibility that any observed enhancement of expression was due to a hyperosmotic effect of the EGTA solution, a 20% mannitol solution (osmolarity similar to 0.4M EGTA) was included as a control in both the pre-treatment and co-instillation models.

mouse nose = conditions: cited from earlier work
[3] = Stabilization of cationic lipid:pDNA complexes by PEG-containing lipid; type: physicochemical; conditions: 1.14 mol % relative to total lipid
Protocol: For example, at 1.14 mol % DMPE-PEG5000 (relative to the amount of total lipid), cationic lipid:pDNA complexes could be stabilized at pDNA concentrations exceeding 20 mM. Without PEG-containing lipids, a salt excipient, which is not preferred since an ionic excipient also depresses transfection activity, is required to maintain the lipid:pDNA ratio of the complex during certain methods such aerosolization. For more information regarding use of PEG derivatives the following references are specifically incorporated by reference: Simon J. Eastman et al., Human Gene Therapy, 8, pp. 765-773 (1997); Simon J. Eastman et al. Human Gene Therapy, p. 8, pp. 313-322 (1997).

[4] = 0.5 μg/ml in culture medium containing 50 nM retinoic acid

CCCCCCCCCC(=O)O[C@H](CC(=O)[O-])C[N+](C)(C)C [Decanoylcamitine, decanoylcarnitine]
Effects of Tight Junction Disrupting Compounds on Cationic Amphiphile: DNA Complex Binding (polarized NHBE cells [1]): Mildly Effective

O=C(O)CN(CCN(CC(=O)O)CC(=O)O)CC(=O)O [EDTA, Ethylenediaminetetraacetic acid]
Effects of Tight Junction Disrupting Compounds on Cationic Amphiphile: DNA Complex Binding (polarized NHBE cells [1]): Very Effective | toxic side-effects (CF patients; 0.2 g in 10 ml injected, or 0.6 g in 300 ml nebulized over 24 h, via tracheostomy once per day for 3 days): No toxic side-effects were noted | adverse effects (CF patients; children with CF, aerosol of 0.05M 3 times/day for 2 weeks): no adverse effects | tolerability (CF patients; children with CF, aerosol of 0.1 M 3 times/day for 2 weeks): Three out of ten could not tolerate | respiratory function (CF patients; same phase I trial): remained unchanged | serum calcium and magnesium levels (CF patients; same phase I trial): remained normal

CCCCCCCCCC(=O)[O-].[Na+] [Sodium Caprate, sodium caprate]
Effects of Tight Junction Disrupting Compounds on Cationic Amphiphile: DNA Complex Binding (polarized NHBE cells [1]): Mildly Effective

C[C@H](CCC(=O)NCC(=O)[O-])[C@H]1CC[C@H]2[C@@H]3[C@H](O)C[C@@H]4C[C@H](O)CC[C@]4(C)[C@H]3C[C@H](O)[C@]12C.[Na+] [Sodium glycocholate, sodium glycocholate]
Effects of Tight Junction Disrupting Compounds on Cationic Amphiphile: DNA Complex Binding (polarized NHBE cells [1]): Mildly Effective

C[C@@]1(CO)[C@H](O)CC[C@@]2(C)[C@H]1CC[C@H]1C[C@@H]3C[C@@]12CC[C@]3(O)CO [aphidicolin]
effect on gene expression from polarized NHBE cells (polarized NHBE cells [2]): no effect on gene expression | inhibition of proliferation of NHBE cells (NHBE cells; [4]): sufficient to inhibit proliferation | toxicity (NHBE cells; [4]): minimal toxicity | [methyl-3H]-thymidine incorporation (NHBE cells; NHBE cells grown on plastic, presence of aphidicolin): 6,600±600 cpm/μg DNA

OC[C@@H](O)[C@@H](O)[C@H](O)[C@H](O)CO [mannitol]
X-gal staining in the trachea (mouse trachea; 20% pre-treatment, compared with AdV alone, FIG. 4): not different | enhancement in gene transfer (mouse trachea; pre-treating with hyperosmotic solution, FIGS. 4 & 5A): No comparible enhancements

polidocanol
AdV-mediated gene expression in respiratory epithelial cells (mouse nose): enhanced AdV-mediated gene expression

polyethylene glycol 5000-dimyristoylphosphatidylethanolamine [DMPE-PEG5000]
pDNA concentration at which cationic lipid:pDNA complexes could be stabilized [3]: exceeding 20 mM
